Laboratory results taken from patent EP4772513A1, “PI3K-ALPHA INHIBITOR AND USE THEREOF” (TYK Medicines (Zhengzhou), Inc., priority 2023, dated 2025).

What was measured:
[1] = tested on: Human breast cancer cells SK-BR-3 (WT); experiment: Cell proliferation inhibition assay (CTG), SK-BR-3 (WT); assay type: cell-based; conditions: Homo sapiens, 72 h, SK-BR-3 (WT) cells, 3 days incubation, CTG readout
Procedure: (§1) Cell Proliferation Inhibition Assay
(§2) 1. Experimental Materials
(§3) II. Experimental Protocol
(§4) • a) Cell suspension was prepared; • b) The medium was removed from the culture flask; • c) The cells were rinsed once with PBS; • d) Trypsin was added for digestion, and the cells were centrifuged and collected; • e) The cells were resuspended in medium, counted and adjusted to an appropriate concentration; • f) 100 µL of cell suspension was added to each well of a 96-well plate. One plate was used for each cell line, which was incubated overnight in a 37 °C, 5% CO2 incubator.
(§5) 2. Treatment of Compounds
(§6) • a) Serial dilutions of the test compounds were prepared: The compound was prepared as a 10 mM stock solution. 18 µL of the stock solution was dissolved in 982 µL of the culture medium containing DMSO, followed by 4-fold serial dilutions in culture medium containing 0.5% DMSO to give 9 concentrations. The concentrations of the diluted compound were as follows: 180000 nM, 45000 nM, 11250 nM, 2812.5 nM, 703.13 nM, 175.78 nM, 43.95 nM, 10.99 nM, and 2.75 nM. • b) After thorough mixing, 20 µL of each compound solution was added to the cell plate containing 100 µL of cells per well. Each concentration was tested in triplicate. Final concentrations of the compound were as follows: 30000 nM, 7500 nM, 1875 nM, 468.75 nM, 117.188 nM, 29.30 nM, 7.32 nM, 1.83 nM, and 0.46 nM. • c) The cells were transferred into the incubator and incubated for 3 days.
(§7) The cell plate was removed, 25 µL of CTG reagent was added to each well of the 96-well plate, the mixture was shook on a plate shaker at room temperature for 10 minutes, and the plate was read.
(§8) The cell survival rate was calculated using the following formula (% Cell Survival): % Cell Survival = 100% × (OD_Sample−OD_LCave)/(OD_HC−OD_LCave) [formula] • OD_HC: Reading of the 0.1‰ DMSO control group • OD_Sample: Reading of cells treated with compound • OD_LCave: Reading of blank medium
(§9) Analyzed by Prism: Dose-response-Inhibition - Log (inhibitor) vs response (three parameters for the best fit).

[2] = tested on: Human breast cancer cells T47D (H1047R); experiment: Cell proliferation inhibition assay (CTG), T47D (H1047R); assay type: cell-based; conditions: Homo sapiens, 72 h, 3 days incubation, CTG readout
Procedure: as §1, §2, §3, §4, §5, §6, §7, §8, §9

IC50 [1] | IC50 [2] | SMILES
> 5 µM | ≤ 0.5 µM | Cc1cc([C@@H](C)Nc2ccccc2C(=O)O)c2oc3c(c(=O)c2c1)CCN(S(=O)(=O)N1C[C@@H](C)O[C@H](C)C1)C3 [Compound C154]
> 5 µM | ≤ 0.5 µM | Cc1cc([C@@H](C)Nc2ccccc2C(=O)O)c2oc3c(c(=O)c2c1)CCN(S(=O)(=O)c1c(C)cnn1C)C3 [Compound C158]
> 5 µM | ≤ 0.5 µM | C[C@@H]1COCCN1S(=O)(=O)N1CCc2c(oc3c([C@@H](C)Nc4ccc(Cl)nc4C(=O)O)cc(F)cc3c2=O)C1 [Compound C116]
> 5 µM | ≤ 0.5 µM | Cc1cc([C@@H](C)Nc2ccccc2C(=O)O)c2oc3c(c(=O)c2c1)CCN(S(=O)(=O)N1CCOC2(CC2)C1)C3 [Compound C147]
> 5 µM | ≤ 0.5 µM | Cc1cc([C@@H](C)Nc2ccc(Cl)nc2C(=O)O)c2oc3c(c(=O)c2c1)CCN(S(=O)(=O)c1ccccc1)C3 [Compound C82]
> 5 µM | ≤ 0.5 µM | C[C@@H](Nc1ccc(Cl)nc1C(=O)O)c1cc(F)cc2c(=O)c3c(oc12)CN(S(=O)(=O)c1cc(F)cc(F)c1F)CC3 [Compound C129]
> 5 µM | ≤ 0.5 µM | Cc1cc(C(C)Nc2ccccc2C(=O)O)c2oc3c(c(=O)c2c1)CCN(S(=O)(=O)c1ccccc1)C3 (single isomer, unassigned) [Compound C61]
> 5 µM | ≤ 0.5 µM | C[C@@H]1CN(S(=O)(=O)N2CCc3c(oc4c([C@@H](C)Nc5ccccc5C(=O)O)cc(F)cc4c3=O)C2)C[C@@H](C)O1 [Compound C155]
> 5 µM | ≤ 0.5 µM | C[C@@H](Nc1ccc(Cl)nc1C(=O)O)c1cc(F)cc2c(=O)c3c(oc12)CN(S(=O)(=O)N1CCC(F)(F)CC1)CC3 [Compound C121]
> 5 µM | ≤ 0.5 µM | Cc1cc([C@@H](C)Nc2ccccc2C(=O)O)c2oc3c(c(=O)c2c1)CCN(S(=O)(=O)c1c(C)noc1C)C3 [Compound C139]
> 5 µM | ≤ 0.5 µM | Cc1cnn(C)c1S(=O)(=O)N1CCc2c(oc3c([C@@H](C)Nc4ccccc4C(=O)O)cc(F)cc3c2=O)C1 [Compound C159]
> 5 µM | ≤ 0.5 µM | COc1cccc(S(=O)(=O)N2CCc3c(oc4c([C@@H](C)Nc5ccc(Cl)nc5C(=O)O)cc(F)cc4c3=O)C2)c1 [Compound C97]
> 5 µM | 0.5 to 2 µM | C[C@@H](Nc1ccc(Cl)nc1C(=O)O)c1cc(F)cc2c(=O)c3c(oc12)CN(S(=O)(=O)c1cccc(=O)n1C)CC3 [Compound C124]
> 5 µM | ≤ 0.5 µM | C[C@@H](Nc1ccc(Cl)nc1C(=O)O)c1cc(F)cc2c(=O)c3c(oc12)CN(S(=O)(=O)C1CCCCC1)CC3 [Compound C109]
> 5 µM | 0.5 to 2 µM | Cc1ncn(C)c1S(=O)(=O)N1CCc2c(oc3c([C@@H](C)Nc4ccc(Cl)nc4C(=O)O)cc(F)cc3c2=O)C1 [Compound C126]
> 5 µM | ≤ 0.5 µM | C[C@@H](Nc1ccc(Cl)nc1C(=O)O)c1cc(F)cc2c(=O)c3c(oc12)CN(S(=O)(=O)c1cccn2ncc(Cl)c12)CC3 [Compound C137]
> 5 µM | ≤ 0.5 µM | C[C@@H](Nc1ccccc1C(=O)O)c1cc(F)cc2c(=O)c3c(oc12)CN(S(=O)(=O)N1CCOCC1)CC3 [Compound C80]
> 5 µM | 0.5 to 2 µM | C[C@@H](Nc1ccc(Cl)nc1C(=O)O)c1cc(F)cc2c(=O)c3c(oc12)CN(C(=O)N1CC(F)C1)CC3 [Compound C83]
> 5 µM | ≤ 0.5 µM | Cc1cc([C@@H](C)Nc2ccc(Cl)nc2C(=O)O)c2oc3c(c(=O)c2c1)CCN(S(=O)(=O)C1(C)CC1)C3 [Compound C113]
> 5 µM | ≤ 0.5 µM | Cc1cc([C@@H](C)Nc2ccccc2C(=O)O)c2nc3c(c(=O)n2c1)CCN(S(=O)(=O)c1c(C)cnn1C)C3 [Compound C189]
> 5 µM | ≤ 0.5 µM | C[C@@H]1CN(S(=O)(=O)N2CCc3c(oc4c([C@@H](C)Nc5ccc(Cl)nc5C(=O)O)cc(F)cc4c3=O)C2)CCO1 [Compound C122]
> 5 µM | ≤ 0.5 µM | C[C@H]1CN(S(=O)(=O)N2CCc3c(oc4c([C@@H](C)Nc5ccc(Cl)nc5C(=O)O)cc(F)cc4c3=O)C2)C[C@H](C)O1 [Compound C132]
> 5 µM | 0.5 to 2 µM | Cc1cc([C@@H](C)Nc2ccc(Cl)nc2C(=O)O)c2oc3c(c(=O)c2c1)CCN(S(=O)(=O)N1CCOCC1)C3 [Compound C81]

IC50 [1] | IC50 [2] | SMILES
> 5 µM | ≤ 0.5 µM | C[C@@H](Nc1ccc(Cl)nc1C(=O)O)c1cc(F)cc2c(=O)c3c(oc12)CN(S(=O)(=O)c1cccc(F)c1)CC3 [Compound C94]
> 5 µM | ≤ 0.5 µM | C[C@@H](Nc1ccccc1C(=O)O)c1cc(F)cc2c(=O)c3c(oc12)CN(S(=O)(=O)c1cccc2c1CCO2)CC3 [Compound C150]
> 5 µM | ≤ 0.5 µM | CC(C)S(=O)(=O)N1CCc2c(nc3c([C@@H](C)Nc4ccccc4C(=O)O)cc(F)cn3c2=O)C1 [Compound C193]
> 5 µM | 0.5 to 2 µM | CC(Nc1ccccc1C(=O)O)c1cc(F)cc2c(=O)n3c(nc12)CN(c1cccnc1)CC3 (single isomer, unassigned) [Compound C15]
> 5 µM | ≤ 0.5 µM | C[C@@H](Nc1ccc(Cl)nc1C(=O)O)c1cc(F)cc2c(=O)c3c(oc12)CN(S(=O)(=O)N1CCOC(C)(C)C1)CC3 [Compound C130]
> 5 µM | ≤ 0.5 µM | Cc1cc(C(C)Nc2ccccc2C(=O)O)c2oc3c(c(=O)c2c1)CCN(S(=O)(=O)C1CC1)C3 (single isomer, unassigned) [Compound C59]
> 5 µM | ≤ 0.5 µM | Cc1cc(C(C)Nc2ccc(Cl)nc2C(=O)O)c2nc3c(c(=O)n2c1)CCN(S(=O)(=O)c1c(C)cnn1C)C3 (single isomer, unassigned) [Compound C184]
> 5 µM | ≤ 0.5 µM | C[C@H]1CN(S(=O)(=O)N2CCc3c(oc4c([C@@H](C)Nc5ccc(Cl)nc5C(=O)O)cc(F)cc4c3=O)C2)CCO1 [Compound C123]
> 5 µM | ≤ 0.5 µM | COc1ccccc1S(=O)(=O)N1CCc2c(oc3c([C@@H](C)Nc4ccc(Cl)nc4C(=O)O)cc(F)cc3c2=O)C1 [Compound C96]
> 5 µM | ≤ 0.5 µM | C[C@@H](Nc1ccccc1C(=O)O)c1cc(F)cc2c(=O)c3c(oc12)CN(S(=O)(=O)N1CCOC(C)(C)C1)CC3 [Compound C143]
> 5 µM | ≤ 0.5 µM | Cc1cc([C@@H](C)Nc2ccccc2C(=O)O)c2oc3c(c(=O)c2c1)CCN(c1ccccc1)C3 [Compound C180]
> 5 µM | 0.5 to 2 µM | C[C@@H](Nc1ccc(Cl)nc1C(=O)O)c1cc(F)cc2c(=O)c3c(oc12)CN(S(=O)(=O)C1CCCC1)CC3 [Compound C108]
> 5 µM | ≤ 0.5 µM | C[C@@H](Nc1ccc(Cl)nc1C(=O)O)c1cc(F)cc2c(=O)c3c(oc12)CN(S(=O)(=O)N1CCOC[C@@H]1C)CC3 [Compound C117]
> 5 µM | ≤ 0.5 µM | COc1ccc(S(=O)(=O)N2CCc3c(oc4c([C@@H](C)Nc5ccc(Cl)nc5C(=O)O)cc(F)cc4c3=O)C2)cc1 [Compound C98]
> 5 µM | ≤ 0.5 µM | C[C@@H]1CN(S(=O)(=O)N2CCc3c(oc4c([C@@H](C)Nc5ccc(Cl)nc5C(=O)O)cc(F)cc4c3=O)C2)C[C@@H](C)O1 [Compound C127]
> 5 µM | ≤ 0.5 µM | CC[C@H](C)N1CCc2c(oc3c([C@@H](C)Nc4ccccc4C(=O)O)cc(C)cc3c2=O)C1 [Compound C178]
> 5 µM | ≤ 0.5 µM | C[C@@H](Nc1ccccc1C(=O)O)c1cc(F)cc2c(=O)c3c(oc12)CN(S(=O)(=O)c1ccccc1)CC3 [Compound C89]
> 5 µM | 0.5 to 2 µM | C[C@@H](Nc1ccccc1C(=O)O)c1cc(F)cc2c(=O)c3c(oc12)CN(S(=O)(=O)N1CCC(F)(F)CC1)CC3 [Compound C141]
> 5 µM | ≤ 0.5 µM | C[C@@H](Nc1ccccc1C(=O)O)c1cc(F)cn2c(=O)c3c(nc12)CN(S(=O)(=O)c1ccccc1)CC3 [Compound C192]
> 5 µM | ≤ 0.5 µM | Cc1cc([C@@H](C)Nc2ccccc2C(=O)O)c2oc3c(c(=O)c2c1)CCN(S(=O)(=O)c1c(Cl)ccc2c1CCO2)C3 [Compound C151]
> 5 µM | 0.5 to 2 µM | Cc1cc([C@@H](C)Nc2ccccc2C(=O)O)c2oc3c(c(=O)c2c1)CCN(C1CC2CCC1C2)C3 (stereo partly drawn) [Compound C173]
> 5 µM | ≤ 0.5 µM | C[C@@H](Nc1ccc(Cl)nc1C(=O)O)c1cc(Cl)cc2c(=O)c3c(oc12)CN(S(=O)(=O)N1CCOCC1)CC3 [Compound C66]
